We go through two compounds from patent US20230398077A1, “SILICASOME NANOCARRIER FOR METAL-BASED DRUG DELIVERY” (The Regents of the University of California, priority 2020, published 2023).

One data set concerns HMGB1. The experiment in a line: HMGB1 release from KPC cells (ELISA). The note with it: 500 μM, 24 h. It counts as cell-based, murine. The method, then:
Surface CRT expression was measured by flow cytometry as previously described^[24a]. Briefly, 7.5×10^4 KPC cells were seeded into 24-well plates. After cell attachment, KPC cells were treated with free oxaliplatin and DACHPt (500 μM), for 24 h. The loosely attached cells were combined with trypsin-treated at adherent cells. The cells were washed in cold PBS and then stained on ice with a primary anti-CRT antibody (Abcam, ab2907, 1:140) in 200 μL BD staining buffer for 0.5 h. The cells were washed in cold PBS and stained with an […] secondary antibody (LifeScience Technologies #A21244) for 30 min on ice. After washing in cold PBS, the cells were assessed in a LSRII flow cytometer (BD Biosciences). In the same experiment, the cell culture media were spun down to collect the supernatants for HMGB1 detection by an ELISA kit (Catalog #ST51011, IBL International GmbH), according to the manufacture's instruction.
Background: In an ELISA, binding on a coated surface is turned into a signal by an enzyme label.

A further data set relates to calreticulin (CRT). The experiment in a line: Surface CRT expression in KPC cells (immunofluorescence, flow cytometry). Type of data set: cell-based, murine. As to conditions: 500 μM, 24 h. The method, then: Surface CRT expression was visualized by immunofluorescence (IF) staining using an anti-CRT primary antibody, followed by the incubation with Alex488 conjugated secondary antibody. Briefly, ˜1.5×10^4 KPC cells were seeded into an 8-well confocal chamber slide. After 24 h, the cell culture medium was replaced with fresh medium containing the chemo agents, following which the cells were incubated for another 24 h. The cells were washed twice in cold PBS and fixed with 4% paraformaldehyde (PFA) at room temperature (r.t.) for 15 mins. After fixation, the cells were washed twice with cold PBS and blocked with 1% BSA in PBS for 0.5 h. The cells were incubated with anti-CRT primary antibody (ab2907, 1:200) in 200 μL blocking solution at 4° C. overnight, followed by washing with PBS and staining with secondary antibody (Alex488 conjugated goat anti-rabbit secondary antibody, A-11008, 1:1000) together with the nuclear dye, Hoechst 33342, at r.t. for 1 h. The cells were washed with PBS, then imaged by using a Leica SP8-MD confocal microscope under the 100× objective lens.
Surface CRT expression was measured by flow cytometry as previously described^[24a]. Briefly, 7.5×10^4 KPC cells were seeded into 24-well plates. […] After washing in cold PBS, the cells were assessed in a LSRII flow cytometer (BD Biosciences). […]

Data set [1] deals with KPC cells. As to the kind of experiment: Vaccination study with chemo-induced dying KPC cells, re-challenge on contralateral side. The note with it: for infiltration by CD8^+ T-cells / number of Foxp3^+ regulatory T cell (Treg) / increase in CD8^+/Tregs cell ratio compared to PBS control: IHC of contralateral tumors; for increase in CD8^+/Tregs cell ratio compared to PBS control: day 26; for tumor growth on the contralateral side: vaccination with drug-treated dying KPC cells, p<0.05.
Description: In order to determine whether these in vitro ICD markers actually represent an in vivo immunogenic effect as specified by a consensus ICD document^[26], we also performed a vaccination study in a syngeneic KPC animal model. Suspensions of dying tumor cells, generated by oxaliplatin or DACHPt treatment for 24 h, were subcutaneously injected on 2 occasions (7 days apart) in left flank of immunocompetent B6129SF1/J mice. This was followed by tumor re-challenge on the contralateral side using untreated KPC cells (FIG. 4, panel C).
Moreover, we also validated the ICD effect of DACHPt in a vaccination experiment, using a published protocol^[26]. Briefly, eight million KPC cells were seeded in a tissue culture dish. After cellular attachment, DACHPt or free oxaliplatin (500 μM) were added for 24 h. Cells were collected and washed before being resuspended in 0.8 mL cold PBS. For vaccination, each mouse received subcutaneous injection (SC) of a 100 μL suspension of chemo-treated cells in the right flank. Control animals received PBS only. The vaccination was repeated after 7 days. Fourteen days after the 1st vaccination, the same mice received the SC injection of healthy KPC cells (1×10^6 cells) in the contralateral side. Tumor growth was measured by a digital caliper every 2-3 days. At the conclusion of the vaccination experiment (Day 26), animals were sacrificed and the tumors collected for IHC immunophenotyping of CD8^+ T cells and FoxP3^+ Treg cells. Primary antibodies to CD8 (#14-0808-82, 1:100) and FoxP3 (#13-5773-82, 1:200) were purchased from ThermoFisher. […] The slides were scanned and images were assessed by using Aperio ImageScope software (Leica).

Data set [2] in a line: Pt drug loading of MSNP/silicasome (EE %, LC %) by ICP-MS/ICP-OES. It counts as physicochemical. The note with it: DACHPt incubated with bare MSNP, Pt:MSNP 1:5 w/w. As to the method: In various embodiments the silica nanoparticles are loaded with platinum-based drugs using a combination of coordination and electrostatic interactions. Since the silanol group density on the silica nanoparticle surface(s) (e.g., pore surfaces) an important role in the surface binding of the activated platinum compound (e.g., DACHPt) (see FIG. 2), it is desirable to control the pH during drug loading. Thus, the loading efficiency and capacity was optimized through control of. pH, incubation time, the soaking process, and variation of the drug/particle ratio, etc. Thus, for example, 20 mg MSNP resuspend in 1 mL HEPES buffer (0.1 M, pH 8.5) was mixed with DACHPt complex (4 mg Pt, equal to 8 mg OX). The mixture was sonicated in water bath sonication for 10 mins and then spun down at 15 K rpm for 10 mins. Non-bound Pt in the supernatant, as detected by ICP-OES was used to determine the loading capacity [%=(total Pt—Pt in supernatant)/amount of MSNP*100} and loading efficiency [%=(total Pt—Pt in supernatant)/total Pt*100].
Sixty-five nm bare MSNPs were synthesized at 18 L scale and purified by extensive acidic ethanol washing to remove the CTAC detergent, as reported previously^[4b]. In order to determine the optimal loading condition, we experimented with multiple rounds of drug loading to find the optimal pH, incubation time, sonication condition, and particle/drug feed ratio, etc. Details of the protocol optimization appear online (FIG. 8). In the case of DACHPt loading, purified MSNP (20 mg) from ethanol stock solution was spun at 15,000 rpm for 15 min, and resuspend in 1 mL HEPES buffer (200 mM, pH 8.5). The MSNP suspension was spun down and resuspend in 0.5 mL HEPES buffer (200 mM, pH 8.5). Then, 160 μL DACHPt solution (25 mg/mL, e.q. Pt) and 340 μL pure H2O were added to the MNSP suspension (40 mg/mL, 0.5 mL). The mixture was sonicated for 10 min. In a sonication water bath. The DACHPt-laden MSNPs were spun down at 15,000 rpm for 12 min, followed by collecting the supernatant for Pt elemental analysis by ICP-MS. […]

Data set [3] concerns orthotopic KPC tumor. As to the kind of experiment: Survival study in orthotopic KPC model w/wo anti-PD-1. The note with it: agent alone; Pt 2 mg/kg IV, anti-PD-1 100 μg IP; Kaplan-Meier, Log Rank. It counts as in vivo, mice.
Description: Kaplan-Meier plots were used to display the survival rate of the different animal groups (n=5-7, *p<0.05, Log Rank test).
Tumor-bearing mice were randomly assigned into 6 groups (n=5-7) and received IV injection of Pt drug formulations twice per week as designed in FIG. 6. Anti-PD-1 antibody was injected at 100 μg/animal intraperitoneally two days later after each Pt chemo injection. To assess survival rate, animals were monitored daily up to the stage of spontaneous death or approaching moribund status based on the criteria of extensive abdominal ascites, severe dehydration, significant weight loss (>20%), extreme weakness or inactivity^[4, 21, 30] The survival data were plotted as Kaplan-Meier curves, followed by statistical analysis by Log Rank testing (Mantel-Cox), using GraphPad Prism 7.00 software.
For data set [4], the system named is orthotopic KPC tumor. As to the kind of experiment: Anti-PDAC efficacy in orthotopic KPC model. The note with it: Pt 2 mg/kg IV every 3 days, 3 administrations, day 17. It counts as in vivo, B6129SF1/J mice.
Description: An efficacy study was performed by IV injection of the silicasome carrier eight days after orthotopic KPC implantation in the pancreas of B6129SF1/J mice (FIG. 3, panel D). This corresponds to beginning the treatment at a primary tumor size of 5-10 mm in the absence of macro-metastases^[21]. IV injections were repeated every 3 days for a total of 3 repeats. The control groups included animals receiving IV saline or free oxaliplatin. The tumor growth at the primary and metastatic sites was followed by IVIS bioluminescence imaging up to conclusion of the experiment on day 17 (FIG. 3, panel D, right).
KPC-luc cells (˜1×10^6) were orthotopically injected into the pancreas in mice. […] The control includes saline as well as free oxaliplatin. This dose arrangement is in agreement with the literature^[27]. Tumor-bearing mice received IV injection of the indicated therapy every 3 days for a total of 3 administrations. Before animal sacrifice (72 h post the last IV injection), the mice received intraperitoneal injection of D-luciferin, followed by ex vivo bioluminescence imaging using an IVIS imaging system. […] The H&E slides for toxicity assessment were read in a blinded fashion by an experienced veterinary pathologist.
The nature of data set [5]: PK study, plasma Pt by ICP-MS after single IV injection. The note with it: Pt dose 4.95 mg/kg, one-compartment model.
Description: IV injection of non-encapsulated oxaliplatin (at identical Pt molar dose) served as the free drug control because free DACHPt leads to drug precipitates when interacting with Cl ions in the blood^[7b]. Blood collection was performed at 5 mins, 3 h, 6 h, 24 h and 48 h after IV injection, followed by ICP-MS quantification.
The PK study was performed on 10-12-week-old healthy female B6129SF1/J mice. […] After separation of the plasma fraction, the plasma samples were digested with HCl:HNO3 3:1, v/v) in a hot-block, before replenishment in 2% HNO3 for ICP-MS analysis of the Pt content. The PK data were analyzed by PKSolver software, using a one-compartment model^[4].
Data set [6] can be described thus: Safety assessment by H&E histology of bone marrow and major organs (efficacy study).
Description: KPC-luc cells (˜1×10^6) were orthotopically injected into the pancreas in mice. […] The control includes saline as well as free oxaliplatin. […] Tumor-bearing mice received IV injection of the indicated therapy every 3 days for a total of 3 administrations. Before animal sacrifice (72 h post the last IV injection), the mice received intraperitoneal injection of D-luciferin, followed by ex vivo bioluminescence imaging using an IVIS imaging system. Primary tumor and major organs (e.g. sternum, heart, liver, spleen, lung and kidneys) were harvested and fixed in 10% formalin, followed by paraffin embedding and sectioning to provide 4 μm slices for histological analysis in the UCLA Translational Pathology Core Laboratory (TPCL). H&E staining was performed to look at the pathological abnormality in mice receiving different treatments. The H&E slides for toxicity assessment were read in a blinded fashion by an experienced veterinary pathologist.
The test system of data set [7] is KPC cells. As to the kind of experiment: Cytotoxicity MTS assay in KPC cells. The note with it: 500 μM, 24 h. (In general: Tetrazolium assays rely on reduction of a dye to a coloured formazan, in cell work by metabolically active cells.)
Description: The DACHPt silicasome was tested in a list of cancer cell lines to determine the in vitro killing effect, using a MTS assay. […] The MTS assay was conducted with free DACHPt and oxaliplatin as controls. Data are expressed as mean±SD. n=3.
The MTS assay was performed at 24 h after the treatment with oxaliplatin or DACHPt in KPC cells. Data represents mean±SD, n=3.
Cytotoxicity testing of free Pt drugs or drug-laden silicasomes was performed by using a standard MTS assay (CellTiter 96© AQueous One Solution Cell Proliferation Assay, Promega). PDAC cells were plated at a density of 5×10^3 cells per well in a 96-well plate and cultured for 24 h before the medium was replaced with fresh medium containing free OX, free DACHPt or DACHPt laden silicasome at indicated concentrations. Non-treated cells were used as control. After treatment for 48 h, the medium was replaced with 100 μL of fresh medium containing MTS solution (5:1, v/v medium/CellTiter 96© Aqueous stock solution), and the cells were further cultured at 37° C. for 1 h. The absorbance of the culture wells at 490 nm was recorded by a microplate reader (M5e, Molecular Device, USA). Wells receiving the MTS solution without cells were used as blank. The relative cell viability (%) is [(the absorption of treated well−blank)/(the absorption of control well−blank)]×100%.

Turning to `NC1CCCCC1N.[Pt+2]` (stereo not shown) [DACHPt, (1,2-diaminocyclohexane)platinum(II)], the “HMGB1 release into the supernatant” value with HMGB1 was “increase of released HMGB1”. In addition, the “cell surface fluorescence of CRT” value with calreticulin (CRT) is on record as “significant increase”. In the data set on KPC cells [1], the “infiltration by CD8^+ T-cells” value is “increase in infiltration”, the “number of Foxp3^+ regulatory T cell (Treg)” value was “reduced number”, the “increase in CD8^+/Tregs cell ratio compared to PBS control” value is 6 fold and the “tumor growth on the contralateral side” value is listed as “growth retardation”. Also, in the data set on KPC cells [1] (vaccination study), the “tumor free mice (out of 6)” value is listed as 1. The “encapsulation efficiency (EE %)” value in data set [2] (neutral pH 7.4) came out at 60%. Moreover, the “encapsulation efficiency (EE %)” value in [2] (pH 8.5, before lipid coating) was about 75%. Besides, the “encapsulation efficiency (EE %)” value in [2] (weak acidic pH 5.5) is on record as 25%.

With `O=C1[O][Pt]2([NH][C@@H]3CCCC[C@H]3[NH]2)[O]C1=O` [oxaliplatin], in the data set with HMGB1, the “HMGB1 release into the supernatant” value is “increase of released HMGB1”. Moreover, in the data set with calreticulin (CRT), the “cell surface fluorescence of CRT” value was “significant increase”. For the same compound, in the data set on KPC cells [1], the “infiltration by CD8^+ T-cells” value is recorded as “increase in infiltration”, the “number of Foxp3^+ regulatory T cell (Treg)” value is reported as “reduced number”, the “increase in CD8^+/Tregs cell ratio compared to PBS control” value is 4.8 fold and the “tumor growth on the contralateral side” value was “growth retardation”. Besides, the survival outcome in the data set with orthotopic KPC tumor [3] is “No obvious benefit”. In the data set with orthotopic KPC tumor [4], the “tumor inhibition (primary tumor weight)” value is given as about 5%. Moreover, in [5], the “circulatory half-life (t1/2)” value came out at 21 ± 10.2 min. Moreover, in [6], the “histology of major organs (liver, spleen, kidney, lung, heart)” value is on record as “No major histological abnormalities” and the “reduction in cellularity of the hemopoetic cells in the bone marrow” value is reported as over 50%. Further, the “killing of cells / compromised cell viability (MTS)” value with KPC cells [7] worked out at 70%.
